Data as given in patent publication US12447153B2, “HER2 mutation inhibitors” (Array BioPharma Inc., priority 2021, dated 2025).

Legend:
[1] = target: ErbB2 with Exon 20 YVMA insertion (HER2-YVMA) (Homo sapiens (Human), UniProt P04626, INS775YVMA); assay: Cellular Phosphorylation Assay, Assay 4 (constitutive ErbB2 phosphorylation, NIH 3T3 cells); format: cell-based
[2] = target: EGFR (Homo sapiens (Human), UniProt P00533); assay: ErbB Enzyme Assay (HTRF KinEASE-TK), Assay 3; format: biochemical
[3] = target: ErbB2 WT (Homo sapiens (Human), UniProt P04626); assay: ErbB Enzyme Assay (HTRF KinEASE-TK), Assay 2; format: biochemical
Sequence of ErbB2 WT (P04626 23-1255): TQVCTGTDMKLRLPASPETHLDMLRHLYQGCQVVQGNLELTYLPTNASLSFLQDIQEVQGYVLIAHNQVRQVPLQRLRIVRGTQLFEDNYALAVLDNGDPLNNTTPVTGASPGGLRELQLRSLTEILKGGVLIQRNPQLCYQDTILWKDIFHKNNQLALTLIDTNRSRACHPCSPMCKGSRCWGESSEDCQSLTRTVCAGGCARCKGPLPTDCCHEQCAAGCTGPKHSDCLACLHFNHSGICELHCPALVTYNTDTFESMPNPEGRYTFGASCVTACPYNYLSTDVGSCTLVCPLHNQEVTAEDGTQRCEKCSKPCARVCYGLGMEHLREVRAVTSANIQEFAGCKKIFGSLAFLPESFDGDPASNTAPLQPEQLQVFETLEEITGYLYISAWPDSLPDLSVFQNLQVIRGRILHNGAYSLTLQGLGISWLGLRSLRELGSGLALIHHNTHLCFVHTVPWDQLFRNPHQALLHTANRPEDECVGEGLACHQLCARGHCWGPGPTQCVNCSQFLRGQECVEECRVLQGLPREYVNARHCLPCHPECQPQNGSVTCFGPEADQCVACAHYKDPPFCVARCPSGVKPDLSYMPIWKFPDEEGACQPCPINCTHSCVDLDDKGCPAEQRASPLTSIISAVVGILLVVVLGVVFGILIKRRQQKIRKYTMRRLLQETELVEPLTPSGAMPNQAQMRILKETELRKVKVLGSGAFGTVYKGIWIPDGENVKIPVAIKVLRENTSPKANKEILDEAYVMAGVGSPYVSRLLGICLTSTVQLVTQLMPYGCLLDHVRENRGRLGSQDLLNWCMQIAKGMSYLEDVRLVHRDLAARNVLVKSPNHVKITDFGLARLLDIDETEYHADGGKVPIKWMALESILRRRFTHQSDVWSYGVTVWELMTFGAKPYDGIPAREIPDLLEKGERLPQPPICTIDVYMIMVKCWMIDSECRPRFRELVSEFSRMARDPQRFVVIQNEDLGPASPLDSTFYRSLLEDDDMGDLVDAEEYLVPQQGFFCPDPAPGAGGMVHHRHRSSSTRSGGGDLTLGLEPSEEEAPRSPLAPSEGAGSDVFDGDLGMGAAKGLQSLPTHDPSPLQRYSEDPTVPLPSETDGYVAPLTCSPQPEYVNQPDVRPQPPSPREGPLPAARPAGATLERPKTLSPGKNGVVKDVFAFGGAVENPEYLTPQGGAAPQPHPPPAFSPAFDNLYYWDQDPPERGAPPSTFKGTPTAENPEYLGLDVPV

[4] = target: EGFR wild type (EGFR WT) (Homo sapiens (Human), UniProt P00533); assay: Cellular Phosphorylation Assay, Assay 5 (EGF-stimulated EGFR phosphorylation, NIH 3T3 cells); format: cell-based
Sequence of EGFR wild type (EGFR WT) (P00533 25-1210): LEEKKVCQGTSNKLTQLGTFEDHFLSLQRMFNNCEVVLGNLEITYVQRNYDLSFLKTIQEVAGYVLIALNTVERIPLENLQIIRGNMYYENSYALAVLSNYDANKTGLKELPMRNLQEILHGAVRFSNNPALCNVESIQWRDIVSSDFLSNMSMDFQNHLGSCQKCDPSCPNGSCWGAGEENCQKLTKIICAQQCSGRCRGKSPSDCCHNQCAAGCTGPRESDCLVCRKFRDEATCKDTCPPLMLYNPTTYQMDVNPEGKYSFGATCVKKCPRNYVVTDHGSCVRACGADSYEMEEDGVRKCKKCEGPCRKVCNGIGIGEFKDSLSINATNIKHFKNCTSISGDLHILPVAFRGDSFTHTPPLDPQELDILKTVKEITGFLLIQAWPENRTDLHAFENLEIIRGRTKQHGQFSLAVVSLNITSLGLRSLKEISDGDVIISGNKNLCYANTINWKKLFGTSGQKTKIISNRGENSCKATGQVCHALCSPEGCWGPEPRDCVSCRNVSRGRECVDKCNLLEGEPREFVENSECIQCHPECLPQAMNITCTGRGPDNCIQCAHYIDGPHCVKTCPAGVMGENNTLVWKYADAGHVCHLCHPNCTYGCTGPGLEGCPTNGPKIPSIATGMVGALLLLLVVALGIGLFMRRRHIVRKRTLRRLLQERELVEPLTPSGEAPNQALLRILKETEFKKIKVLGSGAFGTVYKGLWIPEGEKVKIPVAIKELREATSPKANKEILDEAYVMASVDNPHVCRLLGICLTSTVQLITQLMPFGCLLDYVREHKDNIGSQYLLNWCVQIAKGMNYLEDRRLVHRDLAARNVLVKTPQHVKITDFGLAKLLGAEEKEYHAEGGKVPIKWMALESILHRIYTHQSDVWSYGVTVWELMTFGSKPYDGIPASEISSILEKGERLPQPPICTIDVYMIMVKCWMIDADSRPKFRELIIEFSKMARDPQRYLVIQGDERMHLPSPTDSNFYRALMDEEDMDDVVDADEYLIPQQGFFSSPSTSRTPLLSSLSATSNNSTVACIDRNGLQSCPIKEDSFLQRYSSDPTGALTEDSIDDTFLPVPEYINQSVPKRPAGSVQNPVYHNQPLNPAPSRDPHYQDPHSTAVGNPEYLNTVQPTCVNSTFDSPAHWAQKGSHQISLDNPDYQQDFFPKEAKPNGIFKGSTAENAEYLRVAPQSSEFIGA

[5] = cellular ErbB2 YVMA phosphorylation
[6] = cellular EGFR WT phosphorylation, EGF-stimulated
[7] = EGF-stimulated EGFR WT phosphorylation

Sequence of EGFR (P00533 25-1210): as above
Sequence of ErbB2 with Exon 20 YVMA insertion (HER2-YVMA) (P04626 other isoform, or with tags, fused parts or gaps ins YVMA behind 775): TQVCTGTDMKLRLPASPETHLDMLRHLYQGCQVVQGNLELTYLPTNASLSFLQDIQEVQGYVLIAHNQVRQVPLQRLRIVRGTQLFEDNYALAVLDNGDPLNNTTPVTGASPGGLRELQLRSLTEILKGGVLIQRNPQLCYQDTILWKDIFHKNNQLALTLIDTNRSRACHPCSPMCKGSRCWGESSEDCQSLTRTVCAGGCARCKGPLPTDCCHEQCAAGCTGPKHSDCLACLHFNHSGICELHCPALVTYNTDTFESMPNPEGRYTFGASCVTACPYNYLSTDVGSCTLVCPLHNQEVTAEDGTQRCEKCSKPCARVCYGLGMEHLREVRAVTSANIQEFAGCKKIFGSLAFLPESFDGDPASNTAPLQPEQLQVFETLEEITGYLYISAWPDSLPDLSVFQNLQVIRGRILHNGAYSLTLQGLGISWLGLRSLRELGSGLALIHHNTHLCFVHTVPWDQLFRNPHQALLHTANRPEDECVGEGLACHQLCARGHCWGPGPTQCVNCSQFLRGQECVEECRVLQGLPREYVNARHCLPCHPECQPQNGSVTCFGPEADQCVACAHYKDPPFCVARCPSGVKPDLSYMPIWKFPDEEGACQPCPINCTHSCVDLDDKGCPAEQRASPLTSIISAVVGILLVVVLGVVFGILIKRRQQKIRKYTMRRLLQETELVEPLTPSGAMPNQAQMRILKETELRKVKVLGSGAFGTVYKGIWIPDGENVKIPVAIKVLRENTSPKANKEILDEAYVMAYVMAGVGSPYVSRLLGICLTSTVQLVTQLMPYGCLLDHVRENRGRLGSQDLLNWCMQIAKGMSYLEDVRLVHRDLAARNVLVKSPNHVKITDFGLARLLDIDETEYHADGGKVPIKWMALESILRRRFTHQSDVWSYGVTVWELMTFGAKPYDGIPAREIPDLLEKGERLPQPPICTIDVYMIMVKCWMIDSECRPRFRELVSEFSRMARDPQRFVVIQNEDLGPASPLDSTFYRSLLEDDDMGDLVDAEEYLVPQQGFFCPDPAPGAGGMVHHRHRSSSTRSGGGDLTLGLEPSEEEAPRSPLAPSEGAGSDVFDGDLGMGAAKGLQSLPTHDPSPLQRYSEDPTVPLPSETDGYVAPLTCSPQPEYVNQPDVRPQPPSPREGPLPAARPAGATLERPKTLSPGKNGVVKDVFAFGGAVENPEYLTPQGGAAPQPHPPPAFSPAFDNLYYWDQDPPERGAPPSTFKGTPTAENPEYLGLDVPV

SMILES | IC50 [1, 5] | IC50 ([2]; EGFR enzyme assay) | IC50 ([3]; ErbB2 WT enzyme assay) | IC50 [4, 6] | IC50 ([1]; ErbB2 YVMA phosphorylation) | IC50 ([2]; EGFR enzyme) | IC50 ([3]; ErbB2 WT enzyme) | IC50 [4, 7]
C=CC(=O)N1CCN(c2ccc3ncnc(Nc4ccc(Oc5ccn6ncnc6c5)c(C)c4F)c3n2)CC12CC2 [Example 338] | 4.9 nM | 108 nM | 7 nM | 68.9 nM |  |  |  | 
C=CC(=O)N1CCCN(c2ccc3ncnc(Nc4ccc(Oc5ccn6ncnc6c5)c(C)c4F)c3n2)CC1(C)C [Example 259] | 78.5 nM | ≥ 10000 nM | 20.4 nM | 3430 nM |  |  |  | 
C=CC(=O)N1CCC[C@@H](c2ccc3ncnc(Nc4ccc(Oc5ccn6ncnc6c5)c(C)c4F)c3n2)CC1 (single isomer, unassigned) [Example 210] |  |  |  |  | 67.7 nM | 1610 nM | 10.7 nM | ≥ 5000 nM
C=CC(=O)N1C2CCC1CN(c1ccc3ncnc(Nc4ccc(Oc5ccc6c(c5)ncn6C)c(C)c4F)c3n1)C2 [Example 431] | 13.1 nM | 712 nM | 44.9 nM | 393 nM |  |  |  | 
C=CC(=O)N1CCN(c2ccc3ncnc(Nc4cc(C)c(Oc5ccn6ncnc6c5)cc4F)c3n2)C[C@H]1C(C)(C)C [Example 310] | 33.4 nM | ≥ 10000 nM | 10000 nM | ≥ 5000 nM |  |  |  | 
C=CC(=O)N1CCN(c2ccc3ncnc(Nc4ccc(Oc5ccn6ncnc6c5)c(C(F)(F)F)c4)c3n2)CC1(C)C [Example 242, 1-(4-(4-((4-([1,2,4]triazolo[1,5-a]pyridin-7-yloxy)-3-(trifluoromethyl)phenyl)amino)pyrido[3,2-d]pyrimidin-6-yl)-2,2-dimethylpiperazin-1-yl)prop-2-en-1-one] |  |  |  |  | 95.6 nM | 4430 nM | 184 nM | 3460 nM
C=C(C)c1ccc2ncnc(Nc3ccc(Oc4ccc5c(c4)ncn5C)c(C)c3)c2n1 [Example 24, N-(3-methyl-4-((1-methyl-1H-benzo[d]imidazol-5-yl)oxy)phenyl)-6-(prop-1-en-2-yl)pyrido[3,2-d]pyrimidin-4-amine] |  |  |  |  | 70.6 nM | ≥ 10000 nM | 194 nM | ≥ 5000 nM
C=CC(=O)N1C[C@H]2C[C@@H]1[C@H](c1ccc3ncnc(Nc4cc(C)c(Oc5ccn6ncnc6c5)cc4F)c3n1)C2 [Example 371] | 82.4 nM | 3440 nM | 55 nM | ≥ 5000 nM |  |  |  | 
CC#CC(=O)N1CCN(c2ccc3ncnc(Nc4ccc(Oc5ccn6ncnc6c5)c(C)c4F)c3n2)C[C@@H]1COC [Example 180, (R)-1-(4-(4-((4-([1,2,4]triazolo[1,5-a]pyridin-7-yloxy)-2-fluoro-3-methylphenyl)amino)pyrido[3,2-d]pyrimidin-6-yl)-2-(methoxymethyl)piperazin-1-yl)but-2-yn-1-one] |  |  |  |  | 73.4 nM | ≥ 10000 nM | 314 nM | ≥ 5000 nM
C=CC(=O)N1CCCCC(c2ccc3ncnc(Nc4ccc(Oc5ccn6ncnc6c5)c(C)c4)c3n2)C1 (centres unmarked) [Example 204, 1-(3-(4-((4-([1,2,4]triazolo[1,5-a]pyridin-7-yloxy)-3-methylphenyl)amino)pyrido[3,2-d]pyrimidin-6-yl)azepan-1-yl)prop-2-en-1-one] |  |  |  |  | 20.8 nM | 900 nM | 13.2 nM | 2940 nM
C=C(F)C(=O)N1CCN(c2ccc3ncnc(Nc4ccc(Oc5ccn6ncnc6c5)c(C)c4F)c3n2)CC1 [Example 185, 1-(4-(4-((4-([1,2,4]triazolo[1,5-a]pyridin-7-yloxy)-2-fluoro-3-methylphenyl)amino)pyrido[3,2-d]pyrimidin-6-yl)piperazin-1-yl)-2-fluoroprop-2-en-1-one] |  |  |  |  | 315 nM | ≥ 10000 nM | 128 nM | ≥ 5000 nM
C=CC(=O)N1CCN(c2ccc3ncnc(Nc4ccc(Oc5ccn6ncnc6c5)c(C)c4F)c3n2)C[C@@H]1C [Example 88, (S)-1-(4-(4-((4-([1,2,4]triazolo[1,5-a]pyridin-7-yloxy)-2-fluoro-3-methylphenyl)amino)pyrido[3,2-d]pyrimidin-6-yl)-2-methylpiperazin-1-yl)prop-2-en-1-one] |  |  |  |  | 17.8 nM | 2950 nM | 81.3 nM | 1850 nM
CC#CC(=O)N1CCN(c2ccc3ncnc(Nc4ccc(Oc5ccn6ncnc6c5)c(C)c4F)c3n2)CC12CC2 [Example 182, 1-(7-(4-((4-([1,2,4]triazolo[1,5-a]pyridin-7-yloxy)-2-fluoro-3-methylphenyl)amino)pyrido[3,2-d]pyrimidin-6-yl)-4,7-diazaspiro[2.5]octan-4-yl)but-2-yn-1-one] |  |  |  |  | 76.1 nM | 6140 nM | 27.3 nM | 2730 nM
C=CC(=O)N1CCN(c2ccc3ncnc(Nc4ccc(Oc5ccn6ncnc6c5)c(C(F)F)c4)c3n2)CC1(C)C [Example 451] | 49.3 nM | 6260 nM | 106 nM | 3340 nM |  |  |  | 
C=CC(=O)N1CCCN(c2ccc3ncnc(Nc4ccc(Oc5ccn6ncnc6c5)c(C)c4F)c3n2)CC1 [Example 100, 1-(4-(4-((4-([1,2,4]triazolo[1,5-a]pyridin-7-yloxy)-2-fluoro-3-methylphenyl)amino)pyrido[3,2-d]pyrimidin-6-yl)-1,4-diazepan-1-yl)prop-2-en-1-one] |  |  |  |  | 66.1 nM | 9570 nM | 132 nM | ≥ 5000 nM
C=CC(=O)N1CCN(c2ccc3ncnc(Nc4ccc(Oc5cnc6c(c5)ncn6C)c(C)c4F)c3n2)CC12CC2 [Example 450] | 9.8 nM | 480 nM | 67.3 nM | 1160 nM |  |  |  | 
C=CC(=O)N1[C@@H](C)CN(c2ccc3ncnc(Nc4cc(Cl)c(Oc5ccc6c(c5)ncn6C)cc4F)c3n2)C[C@@H]1C [Example 258] | 99.9 nM | ≥ 10000 nM | 10000 nM | ≥ 5000 nM |  |  |  | 
C=CC(=O)N1CCN(c2ccc3ncnc(Nc4cc(Cl)c(Oc5cnc6c(c5)ncn6C)cc4F)c3n2)C[C@H]1C1CC1 [Example 430] | 38.2 nM | ≥ 10000 nM | 308 nM | ≥ 5000 nM |  |  |  | 
C=CC(=O)N1CC[C@H]2C[C@@H]1CN2c1ccc2ncnc(Nc3ccc(Oc4cnc5c(c4)ncn5C)c(C)c3F)c2n1 [Example 237, 1-((1R,5S)-6-(4-((2-fluoro-3-methyl-4-((3-methyl-3H-imidazo[4,5-b]pyridin-6-yl)oxy)phenyl)amino)pyrido[3,2-d]pyrimidin-6-yl)-2,6-diazabicyclo[3.2.1]octan-2-yl)prop-2-en-1-one] |  |  |  |  | 256 nM | ≥ 10000 nM | 1330 nM | ≥ 5000 nM
C=CC(=O)N1CCN(c2ccc3ncnc(Nc4ccc(Oc5ccn6ncnc6c5)c(Cl)c4F)c3n2)CC12CC2 [Example 363] | 3.2 nM | 22.3 nM | 1.8 nM | 35.8 nM |  |  |  | 
C=CC(=O)N1CCC(Oc2ccc3ncnc(Nc4cc(Cl)c(Oc5ccc6cn(C)nc6c5)cc4Cl)c3n2)CC1 [Example 2, 1-(4-((4-((2,5-dichloro-4-((2-methyl-2H-indazol-6-yl)oxy)phenyl)amino)pyrido[3,2-d]pyrimidin-6-yl)oxy)piperidin-1-yl)prop-2-en-1-one] |  |  |  |  | 1140 nM | ≥ 10000 nM | 1290 nM | ≥ 5000 nM
C=CC(=O)N(C)[C@@H]1CCN(c2ccc3ncnc(Nc4cc(C)c(Oc5ccn6ncnc6c5)cc4F)c3n2)C1 [Example 350] | 96 nM | ≥ 10000 nM | 69.4 nM | ≥ 5000 nM |  |  |  | 
C=CC(=O)N1CC[C@H](c2ccc3ncnc(Nc4ccc(Oc5cc(F)c6c(c5)ncn6C)c(C)c4)c3n2)CC1(C)C (racemic) [Example 279] | 62.1 nM | ≥ 10000 nM | 145 nM | ≥ 5000 nM |  |  |  | 
C=CC(=O)N1CCN(c2ccc3ncnc(Nc4cnc(Oc5ccn6ncnc6c5)c(C)c4)c3n2)CC1(C)C [Example 449] | 56.2 nM | 7510 nM | 91.9 nM | ≥ 5000 nM |  |  |  | 
C=CC(=O)N1CCCC(c2ccc3ncnc(Nc4ccc(Oc5ccn6ncnc6c5)c(C)c4F)c3n2)CC1 (centres unmarked) [Example 189, 1-(4-(4-((4-([1,2,4]triazolo[1,5-a]pyridin-7-yloxy)-2-fluoro-3-methylphenyl)amino)pyrido[3,2-d]pyrimidin-6-yl)azepan-1-yl)prop-2-en-1-one] |  |  |  |  | 41.2 nM | 1280 nM | 11.1 nM | 1790 nM
C=CC(=O)N1CCN(c2ccc3ncnc(Nc4ccc(Oc5ccn6ncnc6c5)c(Cl)c4F)c3n2)C[C@@H]1C(C)C [Example 293] | 21.2 nM | 2330 nM | 50.5 nM | ≥ 5000 nM |  |  |  | 
C=CC(=O)N1CCN(c2ccc3ncnc(Nc4ccc(Oc5ccn6ncnc6c5)c(Cl)c4F)c3n2)CC1C(F)F (centres unmarked) [Example 366] | 5.3 nM | 68.3 nM | 7.3 nM | 35.6 nM |  |  |  | 
C=CC(=O)N1CC2CCC(C1)N2c1ccc2ncnc(Nc3ccc(Oc4cnc5c(c4)ncn5C)c(C)c3F)c2n1 [Example 244, 1-(8-(4-((2-fluoro-3-methyl-4-((3-methyl-3H-imidazo[4,5-b]pyridin-6-yl)oxy)phenyl)amino)pyrido[3,2-d]pyrimidin-6-yl)-3,8-diazabicyclo[3.2.1]octan-3-yl)prop-2-en-1-one] |  |  |  |  | 16.7 nM | 178 nM | 46.4 nM | 317 nM
C=C(F)C(=O)N1CCN(c2ccc3ncnc(Nc4ccc(Oc5ccn6ncnc6c5)c(C)c4F)c3n2)CC1(C)C [Example 187, 1-(4-(4-((4-([1,2,4]triazolo[1,5-a]pyridin-7-yloxy)-2-fluoro-3-methylphenyl)amino)pyrido[3,2-d]pyrimidin-6-yl)-2,2-dimethylpiperazin-1-yl)-2-fluoroprop-2-en-1-one] |  |  |  |  | 273 nM | ≥ 10000 nM | 100 nM | ≥ 5000 nM
